Data on ten compounds can be found in patent US20140080762A1, “HYD1 PEPTIDES FOR RELAPSED CANCER” (H. LEE MOFFITT CANCER CENTER AND RESEARCH INSTITUTE, INC., priority 2011, published 2014).

Entries after “also recorded” stand apart in the source; their conditions may differ.

The test system of data set [1] is U226 cells. The data set can be described thus: Combination cytotoxicity assay with HYD1 in U226 cells. Particulars: in vitro. The format is cell-based. An excerpt:
FIG. 8. Table of combination index (CI) summary for combinations of HYD1 and SAHA, etoposide, arsenic, Vel, or doxorubicin in U226 cells.

Data set [2] relates to H929 engrafted tumor. The data set can be described thus: SCID-hu in vivo model, H929 engrafted tumor. Particulars: 8 mg/kg i.p. daily for 21 days. As for the experimental part: The SCID-hu model consists of implanting human fetal bone into the mammary mouse fat pad of SCID mice. The myeloma cells are subsequently injected directly into the bone and myeloma cells will engraft only in the area of the human bone. Human paraprotein can be measured in the mouse sera and levels represent a good marker for evaluating tumor burden and response to chemotherapy. Circulating kappa levels were measured on day 28 (baseline reading before peptide treatment), 35, 42 and 49 by ELISA, and tumor burden was determined by calculating the kappa levels on day X divided by the baseline kappa levels recorded on day 28 for each mouse. Shown in FIG. 2A is the antitumor response of H929 engrafted tumor when mice were given 8 mg/kg intraperitoneal (i.p.) injections daily for 21 days starting on day 28. […] Mice were humanely euthanized at […] as several control mice had tumor protruding from the bone implant. […] The inventors anticipate that because HYD1 induces cell death independent of apoptosis and blocks cell adhesion mediated drug resistance to standard therapy that the most dramatic in vivo activity will be realized when combined with standard therapy.

The test system of data set [3] is peripheral blood mononuclear cells (PBMC). As to the kind of experiment: Cell death in normal peripheral blood mononuclear cells. It is filed as cell-based. Particulars: six hours treatment, up to doses of 50 μg/ml. As for the experimental part:
(§1) CD34^+ hematopoietic progenitor cells were isolated from peripheral blood and treated for 2 hrs with HYD1 (12.5 and 50 μg/ml) and then plated in a methylcellulose media supplemented with growth factors supporting myeloid and erythroid colonies. Colonies were counted on day 12 post-plating. […] In addition, the inventors evaluated the toxicity of HYD1 in normal peripheral blood mononuclear cells (PBMC).

The test system of data set [4] is CD34+ hematopoietic progenitor cells. As to the kind of experiment: Colony forming assay, normal CD34+ hematopoietic progenitor cells. The format is cell-based. To be noted: HYD1 12.5 and 50 μg/ml for 2 hrs; colonies counted day 12. As to the method:
as §1

The subject of data set [5] is MM cells. The data set can be described thus: Characterisation of HYD1-induced cell death in MM cells (apoptosis markers, autophagy, NAC protection). The format is cell-based.
For data set [6], the system named is H929-60 cells. The data set can be described thus: Cross-resistance of H929-60 cells to standard myeloma agents (annexin V FITC/PI, IC50). It is filed as cell-based, human. To be noted: 24 hours; p>0.05. As for the experimental part:
FIG. 19. H929-60 cells are not resistant to standard myeloma therapies. H929 and H929-60 cells were treated with increasing concentrations of melphalan or Velcade for 24 hours. After 24 hours, cells were stained with annexin V FITC/P1 for 45 minutes and acquired on FACScan. IC50 values were determined by linear regressions. […] Shown in the table of FIG. 19 is the mean and standard deviations of three independent experiments.

For data set [7], the system named is H929-60 cells. As to the kind of experiment: HS-5 stroma co-culture model of drug resistance, H929-60 cells. It is filed as cell-based, human. As to the method: FIGS. 15A-15C. […] FIG. 15A: H929 and H929-60 pre-incubated with CMFDA dye were adhered to 10,000 HS-5 cells for 2 hours. After 2 hours unadherent cells were removed and the fluorescence intensity was measured on a fluorescent plate reader. FIGS. 15B and 15C: H929 and H929-60 cells were adhered to HS-5 GFP cells for 24 hours. After 24 hours samples were treated with 15 μM melphalan or 16 nM velcade for 24 hours. Cell death was analyzed using a FACScalibur with the GFP expressing HS-5 cells being excluded from the analysis. In FIGS. 15A-15C, a representative of three independent experiments was shown. (*=p<0.05, n=9 or#=p>0.05, n=9 Students t-test).
The inventors reasoned that acquisition of resistance towards HYD1, which correlated with reduced functional binding to fibronectin, VCAM-1, and HS-5 stromal cells, would likely result in a compromised CAMDR phenotype. To test this premise, the inventors utilized the HS-5 co-culture model of drug resistance. H929 and the HYD1 resistant variant H929-60 cells were treated with either melphalan or velcade in the presence or absence of HS-5/GFP bone marrow stromal cells. As shown in FIGS. 15B and 15C, the HYD1 resistant cell line was not resistant in the co-culture bone marrow stroma model to melphalan or velcade, respectively.

In data set [8] the test system is CD44. The data set can be described thus: Biotin-HYD1 pull-down assay (Mass-Spec, Western blot), CD44 in H929 membrane extract. The format is binding, human. To be noted: NeutrAvidin beads.
Description: The first lane is 30 μg of membrane extract only. CD44 was detected by western blot analysis using a pan-CD44 antibody.
Samples were spun at 15000 XG for minutes at 4 degrees and the supernatant was removed and membranes were pelleted at 100,000Xg for 15 minutes. Membrane pellets were solubilized in AP buffer containing 0.2% NP40 and protein was quantified using BCA reagents (Pierce, Rockford, Ill.). […] After one hour, the beads were washed twice in AP buffer and 50 ug of membrane extracts were added to a total volume of 500 μl and incubated with beads overnight at 4 degrees. The beads were washed five times in AP buffer containing 0.2% NP40 and samples were suspended in SDS-PAGE sample buffer and bound proteins were resolved by SDSPAGE.
NeutrAvidin beads were used to reduce non-specific binding. […] The binding experiment was repeated using 300 ug of membrane extract. […] The inventors next determined whether α4 integrin could be detected by western blot analysis. […] To determine whether CD44 was indeed a direct binding partner of CD44 the inventors used recombinant CD44 and an ELISA as a readout of binding. The recombinant CD44 protein (purchased from Abnova) corresponds to Isoform 4 on Swiss Prot. The amino acid sequence is missing 224-266 and 223 is substituted S for T relative to the longest CD44 variant referred to as epican.
For data set [9], the target named is T1, recombinant CD44 (Homo sapiens, UniProt P16070).
T1 construct: purchased Abnova
T1 sequence (P16070 21-699 isoform P16070-4): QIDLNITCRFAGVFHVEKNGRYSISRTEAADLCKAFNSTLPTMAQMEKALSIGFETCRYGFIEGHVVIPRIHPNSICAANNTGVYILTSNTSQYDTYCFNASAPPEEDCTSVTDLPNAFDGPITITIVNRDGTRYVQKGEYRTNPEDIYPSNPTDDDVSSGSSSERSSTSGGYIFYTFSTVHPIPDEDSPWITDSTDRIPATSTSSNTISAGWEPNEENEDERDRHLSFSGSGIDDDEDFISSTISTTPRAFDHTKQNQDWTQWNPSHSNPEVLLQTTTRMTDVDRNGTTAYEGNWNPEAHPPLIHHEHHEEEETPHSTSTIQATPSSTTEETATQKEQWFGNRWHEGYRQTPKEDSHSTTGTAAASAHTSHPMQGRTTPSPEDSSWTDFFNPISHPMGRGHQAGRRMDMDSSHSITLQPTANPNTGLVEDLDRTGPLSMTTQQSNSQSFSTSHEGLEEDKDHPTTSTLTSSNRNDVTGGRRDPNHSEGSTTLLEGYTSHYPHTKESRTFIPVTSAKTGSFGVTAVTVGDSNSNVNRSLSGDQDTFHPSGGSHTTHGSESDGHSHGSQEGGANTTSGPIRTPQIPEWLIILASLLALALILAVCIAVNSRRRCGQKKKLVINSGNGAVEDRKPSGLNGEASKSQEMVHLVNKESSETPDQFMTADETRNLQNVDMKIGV
As to the kind of experiment: Direct ELISA, recombinant CD44 binding to immobilized biotin-HYD1. Particulars: NeutrAvidin coated 96-well plates. (In general: An ELISA detects its analyte on a solid surface through an enzyme-linked reagent.)
Description: The pull down assay was directly coupled with an unbiased Mass-Spec analysis to identify HYD1 binding partners. […] NeutrAvidin beads were used to reduce non-specific binding. […] The binding experiment was repeated using 300 ug of membrane extract. […] The inventors next determined whether α4 integrin could be detected by western blot analysis. […] To determine whether CD44 was indeed a direct binding partner of CD44 the inventors used recombinant CD44 and an ELISA as a readout of binding. The recombinant CD44 protein (purchased from Abnova) corresponds to Isoform 4 on Swiss Prot. The amino acid sequence is missing 224-266 and 223 is substituted S for T relative to the longest CD44 variant referred to as epican.

The test system of data set [10] is H929-60 cells. The data set can be described thus: FAM-HYD1 binding to cells by FACS, H929-60 cells. The format is cell-based, human. As to the method: (§2) FIGS. 18A, 18B-1, 18B-2, and 18B-3. […] FIG. 18A: H929 and H929-60 cells (4×10^5 cells/ml) were incubated with FAM-HYD1 (6.25, 12.5 μg/ml) on ice for 15 minutes. FACS analysis was used to determine the geometric mean of fluorescence of FAM-HYD1 bound to H929 and H929-60 cells. A representative of three independent experiments is shown. A student's t-test was performed to determine significance (* denotes p<0.05). FIGS. 18B-1, 18B-2, and 18B-3: When the dose of FAM-HYD1 was increased to 12.5 μg/ml FAM-HYD1 binding to plasma membrane was detected in the resistant cell line as determine by confocal microscopy.
A general note: Flow cytometry measures light scatter and fluorescence of single cells or particles in a stream.

For data set [11], the system named is H929-60 cells. As to the kind of experiment: Confocal microscopy of FAM-HYD1 binding, H929-60 cells. It is filed as cell-based, human. To be noted: 12.5 μg/ml FAM-HYD1, confocal microscopy. As for the experimental part: as §2
(§3) To assess whether (a) HYD1 bound the cell surface and (b) whether binding of HYD1 was reduced in the resistant cell line FAM-HYD1 was used to image peptide binding in the parental and resistant cell line by confocal microscopy. A 35 mm glass bottom microwell dishes (Mattek cultureware, Ashland, Mass.) were plated with 10 uL Cell-tak (BD biosciences) per manufacture's instructions. Media containing 1 uM Alexa Fluor 594 wheat germ agglutinin (WGA) (Invitrogen) and 20 uM Hoechst 33342 (Invitrogen) was placed back in the plates and the samples were incubated for 30 minutes. After 30 minutes, the cells were washed and treated with media containing 6.25 μg/ml FAM conjugated HYD1 for 10 minutes. […]

Data set [12] relates to H929 cells. As to the kind of experiment: Confocal microscopy of FAM-HYD1 binding, H929 cells. The format is cell-based, human. To be noted: 6.25 μg/ml FAM-HYD1, 10 minutes. As for the experimental part: FIGS. 11A-11E. […] FIG. 11B: Loss of mitochondrial membrane […] was determined using DiOC6 staining following 2 hours of HYD1 treatment in H929 and H929-60 (* denotes p<0.05 n=9, Student's t-test). FIG. 11C: ATP levels were determined in the H929 and H929-60 cell lines following 6 hours of HYD1 (50 ug/ml) treatment. (* denotes p<0.05 and # denotes p>0.05, n=9, Student's t-test). FIGS. 11D and 11E: H929 cell (FIG. 11D) and H929-60 cells (FIG. 11E) were stained with Alexa Fluor 594 wheat germ agglutinin (WGA) and Hoechst 33342 for 30 minutes. 6.25 μg/ml FAM-HYD1 was added 10 minutes before images were taken. The experiment was repeated 3 independent times and shown is a representative experiment.
as §3

Data set [13] addresses human CD44 ectodomain (human) (UniProt P16070). As to the kind of experiment: SPR; experiment 12/09. (In general: SPR reads the build-up and loss of mass on a sensor chip optically.)
For data set [14] the target is unchanged. As to the kind of experiment: SPR; experiment 12/05.
Data set [15] has the same target. The data set can be described thus: SPR; experiment 12/05 LF.
Data set [16] shares this target. The data set can be described thus: SPR; experiment 11/29.
In data set [17] the test system is epithelial prostate carcinoma cells. Particulars: cited from earlier work.

human CD44 ectodomain (human), sequence (P16070 21-649): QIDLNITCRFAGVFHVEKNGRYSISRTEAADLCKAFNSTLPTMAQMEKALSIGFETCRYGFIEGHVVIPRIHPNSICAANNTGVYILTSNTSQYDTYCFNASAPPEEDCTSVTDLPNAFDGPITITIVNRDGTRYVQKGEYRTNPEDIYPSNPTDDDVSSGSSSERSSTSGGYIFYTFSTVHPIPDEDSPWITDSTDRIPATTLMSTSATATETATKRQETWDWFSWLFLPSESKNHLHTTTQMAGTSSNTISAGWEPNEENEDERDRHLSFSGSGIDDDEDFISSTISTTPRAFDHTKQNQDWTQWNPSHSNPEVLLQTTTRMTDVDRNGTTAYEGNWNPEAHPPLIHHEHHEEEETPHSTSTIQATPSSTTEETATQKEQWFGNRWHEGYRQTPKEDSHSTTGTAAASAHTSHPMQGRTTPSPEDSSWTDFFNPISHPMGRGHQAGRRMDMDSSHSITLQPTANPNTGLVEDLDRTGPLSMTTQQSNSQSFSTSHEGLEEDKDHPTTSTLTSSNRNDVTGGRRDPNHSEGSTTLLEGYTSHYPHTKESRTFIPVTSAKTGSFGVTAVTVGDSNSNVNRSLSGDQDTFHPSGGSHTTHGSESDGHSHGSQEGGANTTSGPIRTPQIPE

With `COc1cccc2c1C(=O)c1c(O)c3c(c(O)c1C2=O)C[C@@](O)(C(=O)CO)C[C@@H]3O[C@H]1C[C@H](N)[C@H](O)[C@H](C)O1` [Doxorubicin], in [1], the “synergy in combination with HYD1 (combination index)” value is “greatest levels of synergy; also recorded: most synergistic”.
As for `CC[C@@H](C)[C@@H](NC(=O)[C@H](N)CCCCN)C(=O)N[C@H](CCCCN)C(=O)N[C@H](CCSC)C(=O)N[C@@H](C(=O)N[C@@H](C(=O)N[C@H](CO)C(=O)N[C@H](Cc1c[nH]c2ccccc12)C(=O)N[C@H](CCCCN)C(=O)NCC(=O)O)[C@H](C)CC)C(C)C` [HYD1], the “overt toxicity or weight loss” value in [2] is reported as “no overt toxicity or weight loss”. In addition, the “cell death in PBMC” value in data set [3] is given as “did not induce cell death; also recorded: not sensitive”. Moreover, the “colony formation of normal CD34+ cells” value in data set [4] is listed as “did not inhibit colony formation; also recorded: did not inhibit differentiation or colony formation”.
Turning to `CC(=O)N[C@@H](CS)C(=O)O` [N-acetyl-L-cysteine], the “protection of MM cells from HYD1-induced death” value in data set [5] is given as “partially protects”.
Consider `CC(C)C[C@H](NC(=O)[C@H](Cc1ccccc1)NC(=O)c1cnccn1)B(O)O` [Velcade], for which, in data set [6], the “IC50 values, H929-60 compared to parental H929 (cross-resistance)” value is given as “not resistant; also recorded: not deemed to be significant”. The “velcade induced cell death in HS-5 co-culture, H929-60” value in [7] (16 nM velcade for 24 hours) was “not resistant”.
With `O=C(O)CCCC[C@@H]1SC[C@@H]2NC(=O)N[C@@H]21` [biotin], the “interaction with CD44 (pull-down)” value in data set [8] is recorded as “not”. The “binding of recombinant CD44 (ELISA)” value in data set [9] was “relatively no binding”.
Regarding `N[C@@H](Cc1ccc(N(CCCl)CCCl)cc1)C(=O)O` [melphalan], the “IC50 values, H929-60 compared to parental H929 (cross-resistance)” value in [6] was “not resistant; also recorded: not deemed to be significant”. In addition, the “melphalan induced cell death in HS-5 co-culture, H929-60” value in data set [7] (15 μM melphalan for 24 hours) is given as “not resistant”.
For the compound `O=C1c2c(O)ccc(O)c2C(=O)c2c(NCCNCCO)ccc(NCCNCCO)c21` [mitoxantrone], the “IC50 values, H929-60 compared to parental H929 (cross-resistance)” value in [6] is reported as “not resistant”.
Regarding FAM-kikmviswkg [FAM-HYD1], the “reduction in FAM-HYD1 binding relative to the parental cell line” value in data set [10] (6.25 ug/ml FAM-HYD1, FACS) stood at 2.7 fold. In addition, the “FAM-HYD1 binding to the cell surface, H929-60 compared to H929” value in [10] (6.25, 12.5 μg/ml, on ice 15 minutes) was “reduced binding; also recorded: decreased FAM-HYD1 binding”. The “FAM-HYD1 binding to plasma membrane, H929-60” value in data set [11] is on record as “detected”. Also, in data set [12], the “localization of FAM-HYD1, H929” value is listed as “localizes to the plasma membrane”.
For orientation: Kd means the constant that tells how readily two partners part at equilibrium. A low value points to higher affinity. Turning to HYD1, the Kd in [13] was 40.9 nM; in data set [14], 22.6 nM; in data set [15], 26.7 nM; in data set [16], 40.2 nM.
With “WIKSMKIVKG (HYD1 variant) [HYD1S, a scrambled derivative of HYD1]”, the “inhibition of cell adhesion to extracellular matrixes (laminin 5, laminin 332, collagen, fibronectin)” value in data set [17] is “not to inhibit cell adhesion”.
